Values joined by “and” are separate entries in the source; they are usually repeats but may differ in a detail not shown here. Identical values can stand only once. Active and inactive are the calls of the source.
Key:
[1] = target: Protein disulfide-isomerase (Homo sapiens, UniProt P07237); assay: inhibition of PDI-mediated insulin reduction – biochemical, turbidity, dry powder samples, set 2, confirmation (AID 652146)
Protein Tat = Protein Tat (Human immunodeficiency virus type 1 group M subtype B (isolate HXB2)(HIV-1), UniProt P04608); type: functional;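 note: tat binding to TAR RNA read out by fluorescence polarization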
Sequence of Protein Tat (P04608 whole entry): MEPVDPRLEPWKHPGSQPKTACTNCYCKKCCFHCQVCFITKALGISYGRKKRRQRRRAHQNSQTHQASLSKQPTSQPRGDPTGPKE

[2] = target: DNA dC->dU-editing enzyme APOBEC-3G (Homo sapiens, UniProt Q9HC16); type: functional;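 note: Dose-response counterscreen measuring inhibition of APOBEC3G DNA deaminase activity, run while confirming APOBEC3A inhibitors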
Sequence of DNA dC->dU-editing enzyme APOBEC-3G (Q9HC16 whole entry): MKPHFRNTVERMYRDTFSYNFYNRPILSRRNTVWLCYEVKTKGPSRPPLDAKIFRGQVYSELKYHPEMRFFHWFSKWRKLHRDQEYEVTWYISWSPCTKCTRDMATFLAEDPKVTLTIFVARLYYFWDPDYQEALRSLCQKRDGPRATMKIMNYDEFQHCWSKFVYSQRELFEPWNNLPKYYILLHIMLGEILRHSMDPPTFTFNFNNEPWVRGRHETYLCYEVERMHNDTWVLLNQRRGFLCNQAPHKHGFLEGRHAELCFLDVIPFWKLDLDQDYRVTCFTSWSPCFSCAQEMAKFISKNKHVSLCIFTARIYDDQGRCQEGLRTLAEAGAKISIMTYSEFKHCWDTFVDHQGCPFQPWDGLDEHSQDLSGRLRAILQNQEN

[3] = target: DNA dC->dU-editing enzyme APOBEC-3A (Homo sapiens, UniProt P31941); assay: Dose Response confirmation of small molecule APOBEC3A DNA Deaminase Inhibitors via a fluorescence-based single-stranded DNA deaminase assay. [Related pubchem assays (depositor defined):AID493011, AID493024]; type: functional
Sequence of DNA dC->dU-editing enzyme APOBEC-3A (P31941 whole entry): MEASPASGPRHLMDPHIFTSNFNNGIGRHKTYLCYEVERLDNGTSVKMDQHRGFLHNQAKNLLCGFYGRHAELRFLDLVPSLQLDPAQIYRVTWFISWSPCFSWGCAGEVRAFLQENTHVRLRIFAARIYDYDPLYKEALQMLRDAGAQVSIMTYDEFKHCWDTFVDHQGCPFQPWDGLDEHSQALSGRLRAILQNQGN

[4] = viability loss in THP-1 monocytes – THP-1 cells, cytotoxicity control for Vif-APOBEC3G degradation inhibitor project, dose response (AID 1117359); type: functional; conditions: THP-1
Caspase-8 = Caspase-8 (Homo sapiens, UniProt Q14790); assay: inhibitors of purified CASP8 protease – biochemical, Z-IETD-R110 fluorescence, cherry-picked samples, selectivity assay for caspase-6 inhibitor project, dose response (AID 743294)
Sequence of Caspase-8 (Q14790 217-374 limits assumed): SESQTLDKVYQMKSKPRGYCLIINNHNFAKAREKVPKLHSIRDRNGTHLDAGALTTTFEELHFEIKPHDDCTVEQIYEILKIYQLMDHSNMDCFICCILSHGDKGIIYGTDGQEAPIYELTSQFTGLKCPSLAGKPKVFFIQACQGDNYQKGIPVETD
Sequence of Caspase-8 (Q14790 385-479 limits assumed): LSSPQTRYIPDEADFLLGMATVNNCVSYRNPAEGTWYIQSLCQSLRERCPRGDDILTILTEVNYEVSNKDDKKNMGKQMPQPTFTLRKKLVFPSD

Caspase-6 = target: T1, Caspase-6 (Homo sapiens, UniProt P55212); assay: inhibition of CASP6 peptide cleavage – biochemical, VEID-R110 fluorescence, cherry-pick, dose response (AID 720632)
T1 sequence (P55212 whole entry): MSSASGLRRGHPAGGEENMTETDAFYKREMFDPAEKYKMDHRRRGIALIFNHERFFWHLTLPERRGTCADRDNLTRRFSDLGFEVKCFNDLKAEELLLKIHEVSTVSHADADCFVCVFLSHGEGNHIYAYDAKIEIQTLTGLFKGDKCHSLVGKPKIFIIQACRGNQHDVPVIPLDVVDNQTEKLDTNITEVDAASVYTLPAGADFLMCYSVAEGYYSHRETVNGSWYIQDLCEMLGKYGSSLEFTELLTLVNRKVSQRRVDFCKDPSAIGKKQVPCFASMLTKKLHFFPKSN

[5] = Counterscreen for activators of the function of SWI/SNF related, matrix associated, actin dependent regulator of chromatin, subfamily a, member 2 (SMARCA2, BRM): Luminescence-based cell-based high throughput dose response assay to identify non-selective compounds using the VP16 reporter assay.; type: functional
[6] = target: SWI/SNF-related matrix-associated actin-dependent regulator of chromatin subfamily A member 2 (Homo sapiens, UniProt P51531); assay: Luminescence-based cell-based high throughput dose response assay to identify activators of the function of SWI/SNF related, matrix associated, actin dependent regulator of chromatin, subfamily a, member 2 (SMARCA2, BRM).; type: functional
Sequence of SWI/SNF-related matrix-associated actin-dependent regulator of chromatin subfamily A member 2 (P51531 whole entry): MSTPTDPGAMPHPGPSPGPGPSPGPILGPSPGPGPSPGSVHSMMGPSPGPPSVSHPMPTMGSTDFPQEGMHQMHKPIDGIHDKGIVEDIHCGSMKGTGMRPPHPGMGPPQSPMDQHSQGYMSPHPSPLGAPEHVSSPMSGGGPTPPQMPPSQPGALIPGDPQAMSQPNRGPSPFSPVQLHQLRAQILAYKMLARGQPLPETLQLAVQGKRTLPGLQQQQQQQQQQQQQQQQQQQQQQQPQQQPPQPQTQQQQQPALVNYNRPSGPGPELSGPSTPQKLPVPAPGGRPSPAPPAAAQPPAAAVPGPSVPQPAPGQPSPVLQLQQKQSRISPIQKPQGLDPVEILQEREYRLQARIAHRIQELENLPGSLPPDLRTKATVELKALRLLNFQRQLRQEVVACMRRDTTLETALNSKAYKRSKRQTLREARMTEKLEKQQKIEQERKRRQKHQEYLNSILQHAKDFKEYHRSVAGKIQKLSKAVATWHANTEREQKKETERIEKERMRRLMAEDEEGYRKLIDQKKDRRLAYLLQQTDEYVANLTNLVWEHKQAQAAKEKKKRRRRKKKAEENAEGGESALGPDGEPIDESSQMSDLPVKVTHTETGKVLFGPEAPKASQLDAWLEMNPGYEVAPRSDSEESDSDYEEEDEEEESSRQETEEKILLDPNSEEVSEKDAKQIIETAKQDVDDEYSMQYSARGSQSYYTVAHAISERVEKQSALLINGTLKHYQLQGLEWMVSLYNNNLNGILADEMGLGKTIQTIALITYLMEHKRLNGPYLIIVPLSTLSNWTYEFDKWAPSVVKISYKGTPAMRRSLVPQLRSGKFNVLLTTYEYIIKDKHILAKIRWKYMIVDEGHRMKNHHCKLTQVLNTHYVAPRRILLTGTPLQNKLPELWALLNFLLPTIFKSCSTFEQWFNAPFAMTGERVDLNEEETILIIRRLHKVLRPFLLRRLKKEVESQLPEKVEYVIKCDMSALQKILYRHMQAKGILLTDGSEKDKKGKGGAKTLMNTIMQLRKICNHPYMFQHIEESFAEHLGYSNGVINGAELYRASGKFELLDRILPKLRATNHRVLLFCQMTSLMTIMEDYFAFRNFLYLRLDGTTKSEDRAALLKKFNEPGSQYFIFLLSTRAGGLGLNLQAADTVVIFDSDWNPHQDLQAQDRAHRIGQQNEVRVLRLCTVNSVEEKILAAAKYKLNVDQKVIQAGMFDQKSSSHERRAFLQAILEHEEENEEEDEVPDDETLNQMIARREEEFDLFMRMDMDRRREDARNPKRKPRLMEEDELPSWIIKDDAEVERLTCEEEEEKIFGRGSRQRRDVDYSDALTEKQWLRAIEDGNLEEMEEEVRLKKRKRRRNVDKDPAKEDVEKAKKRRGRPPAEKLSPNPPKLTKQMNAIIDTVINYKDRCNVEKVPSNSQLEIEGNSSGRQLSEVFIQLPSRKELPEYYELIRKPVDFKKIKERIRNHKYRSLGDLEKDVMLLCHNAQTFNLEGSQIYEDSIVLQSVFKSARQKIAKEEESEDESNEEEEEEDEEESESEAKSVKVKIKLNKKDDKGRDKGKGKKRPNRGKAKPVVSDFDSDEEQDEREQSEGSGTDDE

[7] = target: ADP-ribosylation factor GTPase-activating protein 1 (Rattus norvegicus, UniProt Q62848); assay: Fluorescence polarization-based biochemical high throughput dose response screening assay to identify inhibitors of ADP-ribosylation factor GTPase activating protein 1 (ARFGAP1).; type: functional
Sequence of ADP-ribosylation factor GTPase-activating protein 1 (Q62848 whole entry): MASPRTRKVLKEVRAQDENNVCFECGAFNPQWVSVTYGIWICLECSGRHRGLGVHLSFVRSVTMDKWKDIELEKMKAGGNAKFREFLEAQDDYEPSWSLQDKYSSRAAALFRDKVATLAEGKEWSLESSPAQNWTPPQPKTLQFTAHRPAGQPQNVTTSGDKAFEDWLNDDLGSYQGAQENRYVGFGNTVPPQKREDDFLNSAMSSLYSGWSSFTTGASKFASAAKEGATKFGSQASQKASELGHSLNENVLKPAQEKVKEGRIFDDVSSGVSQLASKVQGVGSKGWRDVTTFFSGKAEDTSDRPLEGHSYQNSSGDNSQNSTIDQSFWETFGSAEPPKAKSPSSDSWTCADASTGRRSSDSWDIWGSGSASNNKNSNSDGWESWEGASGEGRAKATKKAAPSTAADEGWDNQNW

Estrogen receptor = target: T2, Estrogen receptor (Homo sapiens, UniProt P03372);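 note: potency for inhibiting coactivator peptide recruitment to the receptor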
T2 sequence (P03372 whole entry): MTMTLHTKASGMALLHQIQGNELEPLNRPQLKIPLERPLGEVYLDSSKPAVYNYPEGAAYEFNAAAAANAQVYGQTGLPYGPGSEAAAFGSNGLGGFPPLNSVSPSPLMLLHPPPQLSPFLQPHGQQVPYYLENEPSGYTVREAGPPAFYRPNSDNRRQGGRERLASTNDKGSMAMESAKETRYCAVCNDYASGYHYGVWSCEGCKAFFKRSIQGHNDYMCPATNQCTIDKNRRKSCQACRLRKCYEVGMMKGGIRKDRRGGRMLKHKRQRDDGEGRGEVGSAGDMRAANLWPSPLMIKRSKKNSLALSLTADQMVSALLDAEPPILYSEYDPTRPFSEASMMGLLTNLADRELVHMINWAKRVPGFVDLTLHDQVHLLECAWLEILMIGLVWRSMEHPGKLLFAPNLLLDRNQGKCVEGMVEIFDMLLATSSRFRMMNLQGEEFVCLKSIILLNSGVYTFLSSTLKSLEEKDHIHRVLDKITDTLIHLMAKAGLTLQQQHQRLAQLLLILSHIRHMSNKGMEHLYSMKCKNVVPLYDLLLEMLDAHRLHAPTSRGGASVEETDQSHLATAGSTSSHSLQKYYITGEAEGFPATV

[8] = target: Photoreceptor-specific nuclear receptor (Homo sapiens, UniProt Q9Y5X4); type: functional, cell-based;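 note: CHO-S cells with Gal4-NCOR and VP16-NR2E3 two-hybrid luciferase reporter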
Sequence of Photoreceptor-specific nuclear receptor (Q9Y5X4 whole entry, the tested form may be a part): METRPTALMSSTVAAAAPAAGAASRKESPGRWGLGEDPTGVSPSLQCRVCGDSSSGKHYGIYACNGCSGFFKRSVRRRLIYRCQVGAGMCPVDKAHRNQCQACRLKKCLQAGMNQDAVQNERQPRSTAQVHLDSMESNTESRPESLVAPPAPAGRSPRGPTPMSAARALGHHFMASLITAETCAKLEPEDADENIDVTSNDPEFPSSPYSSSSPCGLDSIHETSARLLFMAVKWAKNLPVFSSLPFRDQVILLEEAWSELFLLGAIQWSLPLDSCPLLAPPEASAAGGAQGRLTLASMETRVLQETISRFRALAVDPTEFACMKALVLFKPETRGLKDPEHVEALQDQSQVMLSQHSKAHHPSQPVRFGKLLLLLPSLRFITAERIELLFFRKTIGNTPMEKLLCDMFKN

[9] = target: Arf-GAP with SH3 domain, ANK repeat and PH domain-containing protein 1 (Homo sapiens, UniProt Q9ULH1); type: functional;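 note: biochemical fluorescence polarization dose–response screen measuring inhibition of ASAP1; ASAP1 GAP domain stimulating GTP hydrolysis by truncated human ARF1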
Sequence of Arf-GAP with SH3 domain, ANK repeat and PH domain-containing protein 1 (Q9ULH1 whole entry, the tested form may be a part): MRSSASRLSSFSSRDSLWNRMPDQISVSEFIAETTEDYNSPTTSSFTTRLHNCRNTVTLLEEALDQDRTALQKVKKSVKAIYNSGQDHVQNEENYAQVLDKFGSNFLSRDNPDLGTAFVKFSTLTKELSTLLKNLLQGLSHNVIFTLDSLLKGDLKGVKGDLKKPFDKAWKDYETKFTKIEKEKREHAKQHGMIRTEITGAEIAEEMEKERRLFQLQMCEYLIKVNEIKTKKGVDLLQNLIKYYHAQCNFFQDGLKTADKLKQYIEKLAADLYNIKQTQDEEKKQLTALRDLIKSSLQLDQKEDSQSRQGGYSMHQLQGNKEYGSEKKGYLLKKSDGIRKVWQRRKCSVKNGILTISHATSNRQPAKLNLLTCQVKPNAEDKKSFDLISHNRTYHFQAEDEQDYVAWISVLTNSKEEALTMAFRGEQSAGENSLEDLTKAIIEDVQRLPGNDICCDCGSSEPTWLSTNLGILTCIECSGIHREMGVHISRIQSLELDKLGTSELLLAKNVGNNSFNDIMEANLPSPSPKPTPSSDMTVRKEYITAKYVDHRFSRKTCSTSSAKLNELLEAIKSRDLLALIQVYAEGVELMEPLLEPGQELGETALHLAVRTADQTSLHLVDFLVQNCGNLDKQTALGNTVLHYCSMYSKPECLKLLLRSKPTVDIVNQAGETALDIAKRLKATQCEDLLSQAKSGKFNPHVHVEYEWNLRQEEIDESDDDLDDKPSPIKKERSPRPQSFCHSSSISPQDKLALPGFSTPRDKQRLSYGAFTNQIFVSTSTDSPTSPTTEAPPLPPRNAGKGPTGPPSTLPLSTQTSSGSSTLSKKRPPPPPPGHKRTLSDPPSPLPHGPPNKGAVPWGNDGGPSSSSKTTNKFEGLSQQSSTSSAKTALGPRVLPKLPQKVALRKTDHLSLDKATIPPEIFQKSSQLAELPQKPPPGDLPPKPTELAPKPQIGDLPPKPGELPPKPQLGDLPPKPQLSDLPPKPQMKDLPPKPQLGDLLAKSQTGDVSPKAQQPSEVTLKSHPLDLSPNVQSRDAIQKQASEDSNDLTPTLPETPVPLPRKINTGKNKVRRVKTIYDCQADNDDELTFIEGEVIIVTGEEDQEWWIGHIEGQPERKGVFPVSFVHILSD

[10] = target: Endoplasmic reticulum aminopeptidase 1 (Homo sapiens, UniProt Q9NZ08); assay: inhibition of human ERAP1 enzyme activity – biochemical, cherry-pick, set 2, plate reader, dose response (AID 743314)
[11] = target: T3, Beta-2 adrenergic receptor (Homo sapiens, UniProt P07550); assay: ADRB2 activation measured by internalization – cell-based, FAP fluorogen, flow cytometry, cherry pick 1, dose response (AID 588763); type: functional
T3 sequence (P07550 whole entry): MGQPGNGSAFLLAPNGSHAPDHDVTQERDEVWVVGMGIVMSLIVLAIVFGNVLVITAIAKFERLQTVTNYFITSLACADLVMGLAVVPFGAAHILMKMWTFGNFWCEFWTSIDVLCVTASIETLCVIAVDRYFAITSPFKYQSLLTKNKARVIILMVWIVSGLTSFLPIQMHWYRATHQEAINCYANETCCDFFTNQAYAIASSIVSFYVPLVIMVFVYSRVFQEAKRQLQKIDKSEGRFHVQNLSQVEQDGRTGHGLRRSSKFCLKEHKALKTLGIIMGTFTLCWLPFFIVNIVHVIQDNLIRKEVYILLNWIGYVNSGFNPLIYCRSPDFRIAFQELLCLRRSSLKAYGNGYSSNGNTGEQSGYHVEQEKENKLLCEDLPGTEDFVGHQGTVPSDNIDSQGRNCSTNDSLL

[12] = target: T3, Beta-2 adrenergic receptor; assay: Dose response for HTS for Beta-2AR agonists via FAP method from Powderset2.; type: functional

Structure (SMILES): CCOC(=O)C1(CCOc2ccccc2)CCN(Cc2ccc(O)cc2)CC1
- AC50 [1]: 10 µM (active)

Structure (SMILES): CN(CC(=O)Nc1c(Cl)cccc1Cl)C(=O)c1cccc(-n2cccc2)c1
- IC50 (Protein Tat): > 100 µM (active)
- IC50 [2]: 34.6 µM (active)
- IC50 [3]: 13.9 µM (active)
- CC50 [4]: > 40 µM (active)
- AC50 (Caspase-8): > 70 µM (inactive)
- AC50 (Caspase-6): 1.88 µM (active)

Structure (SMILES): COc1ccc(Br)c(C(=O)Nc2nc3ccccc3[nH]2)c1
- EC50 [5]: > 91.1 µM (inactive)
- EC50 [6]: > 91.1 µM (inactive)

Structure (SMILES): O=C(CSc1nnnn1-c1ccccc1)Nc1nsc(-c2ccc(Cl)cc2)n1
- IC50 [7]: 37.6 µM (inactive)
- IC50 (Estrogen receptor): 20.8 µM (active)
- IC50 [8]: 0.185 µM (active)
- IC50 [9]: 23.6 µM (inactive)

Structure (SMILES): COCCCn1c(C(=O)N2CCOCC2)cc2c(=O)n3ccccc3nc21
- AC50 [10]: 9.81 µM (active)

Structure (SMILES): CCOC(=O)c1ccc(NC(=O)COc2ccc(S(=O)(=O)N3CCCC3)cc2)cc1
- EC50 [11]: 391 nM (active) and 162 nM (active)
- EC50 [12]: 1.37 µM (active)
